Test results from patent US10966978B2, “Dose and regimen for HDM2-p53 interaction inhibitors” (Novartis AG, priority 2016, dated 2021).
Read-outs that look alike come from different tables or passages of the source.

Test system: patients with advanced TP53 wild-type (WT) leukemias
From the text: Patients with Ph+ ALL who show early markers of relapse in MRD surveillance can be considered for inclusion as long as other therapies such as TKIs are exhausted or cannot be given. • Tumor of the patient is TP53 wt characterized by, at a minimum, no mutations in exons 5, 6, 7 and 8, and the p53 status was obtained from a bone-marrow sample, collected no longer than 3 months before signing the main ICF. Safety and Tolerability Profile of Regimen 1B in Hematological Tumors

COc1ncc(-c2nc3c(n2C(C)C)[C@H](c2ccc(Cl)cc2)N(c2cc(Cl)cn(C)c2=O)C3=O)c(OC)n1 [HDM201, (S)-5-(5-Chloro-1-methyl-2-oxo-1,2-dihydro-pyridin-3-yl)-6-(4-chloro-phenyl)-2-(2,4-dimethoxy-pyrimidin-5-yl)-1-isopropyl-5,6-dihydro-1H-pyrrolo[3,4-d]imidazol-4-one]
AE: Atypical Pneumonia (All subjects N = 37, Grade 3/4): 0 n (%) | AE: Balanitis Candida (All subjects N = 37, Grade 3/4): 0 n (%) | AE: Blood Alkaline Phosphatase Increased (All subjects N = 37, Grade 3/4): 0 n (%) | AE: Blood Bilirubin Increased (All subjects N = 37, Grade 3/4): 0 n (%) | AE: Blood Creatinine Increased (All subjects N = 37, Grade 3/4): 1 (2.7) n (%) | AE: Blood Phosphorus Increased (All subjects N = 37, Grade 3/4): 0 n (%) | AE: Blood Uric Acid Increased (All subjects N = 37, Grade 3/4): 1 (2.7) n (%) | AE: Bone Marrow Failure (All subjects N = 37, Grade 3/4): 1 (2.7) n (%) | AE: C-Reactive Protein Increased (All subjects N = 37, Grade 3/4): 1 (2.7) n (%) | AE: Cardiac Failure (All subjects N = 37, Grade 3/4): 0 n (%) | AE: Cellulitis (All subjects N = 37, Grade 3/4): 1 (2.7) n (%) | AE: Chronic Graft Versus Host Disease (All subjects N = 37, Grade 3/4): 1 (2.7) n (%) | AE: Conjunctival Haemorrhage (All subjects N = 37, Grade 3/4): 0 n (%) | AE: Constipation (All subjects N = 37, Grade 3/4): 0 n (%) | AE: Cough (All subjects N = 37, Grade 3/4): 0 n (%) | AE: Cystitis Viral (All subjects N = 37, Grade 3/4): 0 n (%) | AE: Cytomegalovirus Infection (All subjects N = 37, Grade 3/4): 0 n (%) | AE: Decreased Appetite (All subjects N = 37, Grade 3/4): 0 n (%) | AE: Diarrhoea (All subjects N = 37, Grade 3/4): 0 n (%) | AE: Dyspepsia (All subjects N = 37, Grade 3/4): 0 n (%) | AE: Dyspnoea (All subjects N = 37, Grade 3/4): 1 (2.7) n (%) | AE: Epistaxis (All subjects N = 37, Grade 3/4): 0 n (%) | AE: Fatigue (All subjects N = 37, Grade 3/4): 0 n (%) | AE: Febrile Neutropenia (All subjects N = 37, Grade 3/4): 11 (29.7) n (%) | AE: Gamma-Glutamyltransferase Increased (All subjects N = 37, Grade 3/4): 1 (2.7) n (%) | AE: General Physical Health Deterioration (All subjects N = 37, Grade 3/4): 0 n (%) | AE: Gingival Bleeding (All subjects N = 37, Grade 3/4): 0 n (%) | AE: Graft Versus Host Disease (All subjects N = 37, Grade 3/4): 0 n (%) | AE: Haemoglobin Decreased (All subjects N = 37, Grade 3/4): 0 n (%) | AE: Headache (All subjects N = 37, Grade 3/4): 0 n (%) | AE: Hyperbilirubinaemia (All subjects N = 37, Grade 3/4): 0 n (%) | AE: Hyperglycaemia (All subjects N = 37, Grade 3/4): 0 n (%) | AE: Hyperkalaemia (All subjects N = 37, Grade 3/4): 1 (2.7) n (%) | AE: Hyperphosphataemia (All subjects N = 37, Grade 3/4): 0 n (%) | AE: Hyperuricaemia (All subjects N = 37, Grade 3/4): 1 (2.7) n (%) | AE: Hypoalbuminaemia (All subjects N = 37, Grade 3/4): 0 n (%) | AE: Hypocalcaemia (All subjects N = 37, Grade 3/4): 0 n (%) | AE: Hypokalaemia (All subjects N = 37, Grade 3/4): 0 n (%) | AE: Hypomagnesaemia (All subjects N = 37, Grade 3/4): 0 n (%) | AE: Hyponatraemia (All subjects N = 37, Grade 3/4): 0 n (%) | AE: Hypophosphataemia (All subjects N = 37, Grade 3/4): 2 (5.4) n (%) | AE: Hypotension (All subjects N = 37, Grade 3/4): 0 n (%) | AE: Infection (All subjects N = 37, Grade 3/4): 1 (2.7) n (%) | AE: Infective Glossitis (All subjects N = 37, Grade 3/4): 0 n (%) | AE: Iron Overload (All subjects N = 37, Grade 3/4): 0 n (%) | AE: Leukopenia (All subjects N = 37, Grade 3/4): 2 (5.4) n (%) | AE: Lip Oedema (All subjects N = 37, Grade 3/4): 0 n (%) | AE: Lipase Increased (All subjects N = 37, Grade 3/4): 2 (5.4) n (%) | AE: Macular Oedema (All subjects N = 37, Grade 3/4): 1 (2.7) n (%) | AE: Malaise (All subjects N = 37, Grade 3/4): 0 n (%) | AE: Mouth Haemorrhage (All subjects N = 37, Grade 3/4): 0 n (%) | AE: Nausea (All subjects N = 37, Grade 3/4): 0 n (%) | AE: Neutropenia/Neutrophil Count Decreased (All subjects N = 37, Grade 3/4): 11 (29.7) n (%) | AE: Oedema (All subjects N = 37, Grade 3/4): 0 n (%) | AE: Oedema Peripheral (All subjects N = 37, Grade 3/4): 0 n (%) | AE: Oral Disorder (All subjects N = 37, Grade 3/4): 0 n (%) | AE: Pain In Extremity (All subjects N = 37, Grade 3/4): 0 n (%) | AE: Pancytopenia (All subjects N = 37, Grade 3/4): 2 (5.4) n (%) | AE: Pneumonia (All subjects N = 37, Grade 3/4): 0 n (%) | AE: Pollakiuria (All subjects N = 37, Grade 3/4): 0 n (%) | AE: Pyrexia (All subjects N = 37, Grade 3/4): 0 n (%) | AE: Rash (All subjects N = 37, Grade 3/4): 0 n (%) | AE: Rash Erythematous (All subjects N = 37, Grade 3/4): 0 n (%) | AE: Rash Papular (All subjects N = 37, Grade 3/4): 0 n (%) | AE: Rectal Haemorrhage (All subjects N = 37, Grade 3/4): 0 n (%) | AE: Renal Failure (All subjects N = 37, Grade 3/4): 1 (2.7) n (%) | AE: Skin Exfoliation (All subjects N = 37, Grade 3/4): 0 n (%) | AE: Stomatitis (All subjects N = 37, Grade 3/4): 1 (2.7) n (%) | AE: Subarachnoid Haemorrhage (All subjects N = 37, Grade 3/4): 1 (2.7) n (%) | AE: Thrombocytopenia/Platelet Count Decreased (All subjects N = 37, Grade 3/4): 18 (48.6) n (%) | AE: Total (All subjects N = 37, Grade 3/4): 25 (67.6) n (%) | AE: Tumour Lysis Syndrome (All subjects N = 37, Grade 3/4): 9 (24.3) n (%) | AE: Vomiting (All subjects N = 37, Grade 3/4): 0 n (%) | AE: Weight Decreased (All subjects N = 37, Grade 3/4): 0 n (%) | AE: White Blood Cell Count Decreased (All subjects N = 37, Grade 3/4): 3 (8.1) n (%) | AE: Abdominal Discomfort (Regimen 1A N = 16, All Grades): 1 (6.3) n (%) | AE: Abdominal Pain (Regimen 1A N = 16, All Grades): 2 (12.5) n (%) | AE: Abdominal Pain Upper (Regimen 1A N = 16, All Grades): 1 (6.3) n (%) | AE: Acute Kidney Injury (Regimen 1A N = 16, All Grades): 1 (6.3) n (%) | AE: Amylase Increased (Regimen 1A N = 16, All Grades): 3 (18.8) n (%) | AE: Anaemia (Regimen 1A N = 16, All Grades): 6 (37.5) n (%) | AE: Arthralgia (Regimen 1A N = 16, All Grades): 1 (6.3) n (%) | AE: Asthenia (Regimen 1A N = 16, All Grades): 2 (12.5) n (%) | AE: Atrial Fibrillation (Regimen 1A N = 16, All Grades): 2 (12.5) n (%) | AE: Atypical Pneumonia (Regimen 1A N = 16, All Grades): 1 (6.3) n (%) | AE: Balanitis Candida (Regimen 1A N = 16, All Grades): 1 (6.3) n (%) | AE: Blood Alkaline Phosphatase Increased (Regimen 1A N = 16, All Grades): 1 (6.3) n (%) | AE: Blood Bilirubin Increased (Regimen 1A N = 16, All Grades): 1 (6.3) n (%) | AE: Blood Creatinine Increased (Regimen 1A N = 16, All Grades): 1 (6.3) n (%) | AE: Blood Phosphorus Increased (Regimen 1A N = 16, All Grades): 1 (6.3) n (%) | AE: Blood Uric Acid Increased (Regimen 1A N = 16, All Grades): 1 (6.3) n (%) | AE: Bone Marrow Failure (Regimen 1A N = 16, All Grades): 0 n (%) | AE: C-Reactive Protein Increased (Regimen 1A N = 16, All Grades): 1 (6.3) n (%) | AE: Cardiac Failure (Regimen 1A N = 16, All Grades): 1 (6.3) n (%) | AE: Cellulitis (Regimen 1A N = 16, All Grades): 0 n (%) | AE: Chronic Graft Versus Host Disease (Regimen 1A N = 16, All Grades): 1 (6.3) n (%) | AE: Conjunctival Haemorrhage (Regimen 1A N = 16, All Grades): 1 (6.3) n (%) | AE: Constipation (Regimen 1A N = 16, All Grades): 0 n (%) | AE: Cough (Regimen 1A N = 16, All Grades): 1 (6.3) n (%) | AE: Cystitis Viral (Regimen 1A N = 16, All Grades): 1 (6.3) n (%) | AE: Cytomegalovirus Infection (Regimen 1A N = 16, All Grades): 0 n (%) | AE: Decreased Appetite (Regimen 1A N = 16, All Grades): 4 (25.0) n (%) | AE: Diarrhoea (Regimen 1A N = 16, All Grades): 4 (25.0) n (%) | AE: Dyspepsia (Regimen 1A N = 16, All Grades): 1 (6.3) n (%) | AE: Dyspnoea (Regimen 1A N = 16, All Grades): 1 (6.3) n (%) | AE: Epistaxis (Regimen 1A N = 16, All Grades): 0 n (%)
